Test results as given in patent US20170281470A1, “METHOD AND APPARATUS FOR DRY GRANULATION” (ATACAMA LABS OY, priority 2006, published 2017).

Experiment: Agglomeration during storage at room temperature and ambient humidity
Assay type: physicochemical
Conditions: stored in room temperature and ambient humidity

agglomeration during storage: heavy agglomeration
Structure (SMILES): CN(C)C(=N)N=C(N)N [100% metformin fine powder, metformin]
